Laboratory results from patent US5932417A, “Method of screening compounds for controlling capacitative calcium ion entry into mammalian cells” (priority 1996, dated 1999).
Entries after “also recorded” stand apart in the source; their conditions may differ.

Columns and labels:
[1] = tested on: CCE endogenous to the HEK 293 cell; assay: Carbachol-stimulated endogenous CCE in control HEK 293 cells; assay type: cell-based, human; details: 25 μM SKF 96365
Text: (§1) Trp proteins can be expressed in cells by standard recombinant means such as described in Innamoratti et al. (57), Gudermann et al. (58), Zhu et al. (59) and Ca^2+ influx monitored in single cells as described in Zhu et al. (30) or in a population of cells as described in Liao et al. (32). By doing this in the absence and presence of test compounds of which the effect on trp-mediated CCE can then be determined. An example is shown below (FIGS. 1 and 2) where human embryonic kidney cells (HEK-293 cells) expressing Htrp3 in stable form (HEKt3-9) are stimulated with carbachol and CCE is measured upon readdition of Ca^2+ to the extracellular medium. […] Not only agents that block calcium entry due to trp expression but also agents that stimulate calcium entry due to trp can be monitored in this way.
(§2) In the above examples, cell were suspended in extracellular solution at a concentration of 20×10^6 cells/ml, loaded with Fura2AM (5 μM, 30 min), washed with solution nominally free of calcium, twice, and suspended at 2×10^6 cells/ml. Intracellular Ca^2+ concentrations were then monitored as described in Liao et al (32). Times and concentrations of additions are depicted by the bars in the Figures. Control cells were HEK 293 cells expressing an unrelated protein. For further details see references 32 and 30. […]

Htrp3 [2] = molecular target: T1, Htrp3 (Homo sapiens, UniProt Q13507); assay: Carbachol-stimulated CCE upon Ca2+ readdition in HEK-293 cells stably expressing Htrp3 (HEKt3-9); assay type: cell-based; set-up: expressed in transfected cells; details: 25 μM SKF 96365, HEKt3-9 cells, Ca2+ readdition (FIG. 2)
T1 sequence (Q13507 1-848 isoform Q13507-3): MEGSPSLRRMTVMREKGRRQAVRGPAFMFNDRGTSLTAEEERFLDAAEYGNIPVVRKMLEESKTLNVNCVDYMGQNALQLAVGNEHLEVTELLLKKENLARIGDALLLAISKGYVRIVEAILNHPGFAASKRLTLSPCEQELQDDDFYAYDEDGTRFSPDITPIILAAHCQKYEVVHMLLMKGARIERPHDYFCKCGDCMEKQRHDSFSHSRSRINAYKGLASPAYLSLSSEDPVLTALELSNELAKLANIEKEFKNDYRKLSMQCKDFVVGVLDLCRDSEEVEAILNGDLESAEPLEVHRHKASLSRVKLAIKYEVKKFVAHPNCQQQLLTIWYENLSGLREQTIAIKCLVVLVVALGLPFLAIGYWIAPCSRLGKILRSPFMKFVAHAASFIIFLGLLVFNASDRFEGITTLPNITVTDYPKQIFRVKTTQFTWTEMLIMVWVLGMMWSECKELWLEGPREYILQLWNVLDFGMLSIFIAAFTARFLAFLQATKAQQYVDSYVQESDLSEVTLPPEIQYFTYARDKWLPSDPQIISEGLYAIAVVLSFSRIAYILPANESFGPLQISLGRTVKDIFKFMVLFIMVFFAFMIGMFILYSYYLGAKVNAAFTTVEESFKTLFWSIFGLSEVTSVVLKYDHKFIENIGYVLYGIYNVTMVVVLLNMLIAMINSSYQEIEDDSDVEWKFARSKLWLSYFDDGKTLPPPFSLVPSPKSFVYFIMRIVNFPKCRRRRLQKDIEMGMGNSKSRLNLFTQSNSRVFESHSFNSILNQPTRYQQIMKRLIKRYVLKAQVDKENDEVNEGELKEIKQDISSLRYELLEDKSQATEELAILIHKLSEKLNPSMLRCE
Text: as §1, §2

Htrp3 [3] = molecular target: T1, Htrp3; assay: Maitotoxin-stimulated Ca2+ influx into HEK 293 cells expressing Htrp3 versus control cells; assay type: cell-based; set-up: expressed in transfected cells; details: HEK 293 cells (FIG. 3)
Text: as §1, §2

Htrp3 [4] = molecular target: T1, Htrp3; assay type: cell-based; set-up: The full length cDNAs encoding the M5 muscarinic receptor (32), Htrp1 (29), Htrp3 and murine luteinizing hormone receptor; expressed in transfected cells; host or cells: COS-M6
Procedure: Intracellular Ca^2+ transients were measured in individual cells by fluorescence videomicroscopy using the Attofluor Digital Imaging and Photometry attachment of a Carl Zeiss Axiovert inverted microscope. Cells (COS-M6 or L) were grown on circular coverslips, rinsed and incubated with 5 μM Fura2/AM (Molecular Probes) in Hepes buffered saline (HPSS: 120 mM NaCl, 5.3 mM KCl, 0.8 mM MgSO4, 1.8 mM CaCl2, 11.1 mM glucose, 20 mM Hepes-Na, pH 7.4) at 37° C. for 30 min and then washed with HPSS twice at room temperature. The coverslips with the cells were then clamped into a circular open-bottom chamber and mounted onto the stage of the microscope. [Ca^2+ ]i in individual cells was monitored at room temperature exciting Fura2 alternatingly at 334 and 380 nm and recording emitted fluorescence at 520 nm. All reagents were diluted to their final concentrations in HPSS and applied to the cells by surface perfusion. […] The system allows data acquisition from up to 99 user-defined variably-sized regions of interest per field of view. Data from 15 to 30 individual cells were thus collected per experiment and experiments were repeated until data from sufficient cells were collected to generate an ensemble average that was calculated after transfer into Microsoft Excel 5.0. […]
For assessment of the rate at which [Ca^2+ ]i falls after an initial stimulation with agonist, t=0 is the time of agonist addition; for assessment of rate of influx of Ca^2+ into cells in which Ca^2+ stores had been depleted by agonist, t=0 is the time of Ca^2+ readdition. t1/2 /values were obtained by fitting the function A=A°exp(-t·ln2/t1/2)+B to the data points shown.
Cells that had been transfected with expression vectors carrying the M5 receptor and, as appropriate, either the newly cloned Htrp3 cDNA or the previously cloned Htrp1 cDNA (29), were grown on coverslips, loaded with the florescent Ca^2+ indicator dye Fura2 and tested for a response to CCh 40-48 hours after transfection. […] Changes in [Ca^2+ ]i as a function of time were recorded from individual cells, averaged and fitted by a first order decay function plus an offset.

[5] = tested on: CCE endogenous to COS cells; assay type: cell-based
Procedure: Intracellular Ca^2+ transients were measured in individual cells by fluorescence videomicroscopy using the Attofluor Digital Imaging and Photometry attachment of a Carl Zeiss Axiovert inverted microscope. Cells (COS-M6 or L) were grown on circular coverslips, rinsed and incubated with 5 μM Fura2/AM (Molecular Probes) in Hepes buffered saline (HPSS: 120 mM NaCl, 5.3 mM KCl, 0.8 mM MgSO4, 1.8 mM CaCl2, 11.1 mM glucose, 20 mM Hepes-Na, pH 7.4) at 37° C. for 30 min and then washed with HPSS twice at room temperature. The coverslips with the cells were then clamped into a circular open-bottom chamber and mounted onto the stage of the microscope. [Ca^2+ ]i in individual cells was monitored at room temperature exciting Fura2 alternatingly at 334 and 380 nm and recording emitted fluorescence at 520 nm. […] Data from 15 to 30 individual cells were thus collected per experiment and experiments were repeated until data from sufficient cells were collected to generate an ensemble average that was calculated after transfer into Microsoft Excel 5.0. […]
For assessment of the rate at which [Ca^2+ ]i falls after an initial stimulation with agonist, t=0 is the time of agonist addition; for assessment of rate of influx of Ca^2+ into cells in which Ca^2+ stores had been depleted by agonist, t=0 is the time of Ca^2+ readdition. t1/2 /values were obtained by fitting the function A=A°exp(-t·ln2/t1/2)+B to the data points shown. […]

M5 muscarinic receptor [6] = assay: Carbachol-induced capacitative Ca2+ influx in Ltk- cell lines expressing the M5 receptor (Fura2); assay type: cell-based; details: control Ltk- cell lines with M5 receptor only; average±SD, 20 cells each of 5 clones
Procedure: Mouse fibroblast Ltk^- cells (3×10^6 cells/100 mm dish) were transfected by the calcium phosphate/glycerol shock method with 5 μg each of the plasmids with the antisense cDNAs and 0.5 μg of the pcDNA3 carrying the M5 receptor. The control cells received only the M5 muscarinic receptor cDNA in pcDNA3. One day after transfection, the cells were trypsinized and diluted with Minimum Essential Medium--α medium containing 10% heat-inactivated fetal bovine serum, 50 units/ml penicillin, 50 μg/ml streptomycin, and 400 μg/ml G418 (GIBCO). Serial 1:4 dilutions of the cells were transferred into 96-well plates and G418 resistant clones were allowed to develop for two weeks in the G41 8-containing medium. Single colonies were then expanded and the cells used for Fura2 fluorescence measurement of muscarinic receptor induced [Ca^2+ ]i transients. […]
Intracellular Ca^2+ transients were measured in individual cells by fluorescence videomicroscopy using the Attofluor Digital Imaging and Photometry attachment of a Carl Zeiss Axiovert inverted microscope. […] [Ca^2+ ]i in individual cells was monitored at room temperature exciting Fura2 alternatingly at 334 and 380 nm and recording emitted fluorescence at 520 nm. […]

M5 muscarinic receptor [7] = assay: Carbachol-induced [Ca2+]i plateau in COS-M6 cells transfected with M5 receptor; assay type: cell-based; details: extracellular Ca2+ present
Procedure: COS-M6 cells were transfected by the DEAE-dextran/chloroquine shock method (14) as described (30) with changes. Sixteen hours prior to transfection, COS-M6 cells that had been kept subconfluent were plated at a density of 2×10^5 cells/well onto 25 mm glass coverslips placed at the bottom of the wells of 6-well plates. Cells in the individual wells were then transfected with 160 μl of transfection mixture (30) containing 0.1 μg pcDNA3 with the M5 receptor cDNA, a three fold molar excess of pcDNA3 vector carrying either the Htrp3, Htrp1 or mLHR cDNA to bring the final concentration of DNA to 4 μg/ml. Cell were used 40 to 48 hours after transfection.
Intracellular Ca^2+ transients were measured in individual cells by fluorescence videomicroscopy using the Attofluor Digital Imaging and Photometry attachment of a Carl Zeiss Axiovert inverted microscope. […] [Ca^2+ ]i in individual cells was monitored at room temperature exciting Fura2 alternatingly at 334 and 380 nm and recording emitted fluorescence at 520 nm. […] Data from 15 to 30 individual cells were thus collected per experiment and experiments were repeated until data from sufficient cells were collected to generate an ensemble average that was calculated after transfer into Microsoft Excel 5.0. […]

[8] = tested on: endogenous TG-stimulated Ca2+ entry of COS cells; assay: Thapsigargin (store depletion)-stimulated Ca2+ entry in control COS cells; assay type: cell-based; details: 250 μM La3+, 500 nM TG, 1.8 mM Ca2+ added
Procedure: (§3) Intracellular Ca^2+ transients were measured in individual cells by fluorescence videomicroscopy using the Attofluor Digital Imaging and Photometry attachment of a Carl Zeiss Axiovert inverted microscope. Cells (COS-M6 or L) were grown on circular coverslips, rinsed and incubated with 5 μM Fura2/AM (Molecular Probes) in Hepes buffered saline (HPSS: 120 mM NaCl, 5.3 mM KCl, 0.8 mM MgSO4, 1.8 mM CaCl2, 11.1 mM glucose, 20 mM Hepes-Na, pH 7.4) at 37° C. for 30 min and then washed with HPSS twice at room temperature. The coverslips with the cells were then clamped into a circular open-bottom chamber and mounted onto the stage of the microscope. [Ca^2+ ]i in individual cells was monitored at room temperature exciting Fura2 alternatingly at 334 and 380 nm and recording emitted fluorescence at 520 nm. All reagents were diluted to their final concentrations in HPSS and applied to the cells by surface perfusion. The duration of exposure to each reagent mixture is indicated by the horizontal lines above the graphs depicting the changes in [Ca^2+ ]i as a function of time. […] Data from 15 to 30 individual cells were thus collected per experiment and experiments were repeated until data from sufficient cells were collected to generate an ensemble average that was calculated after transfer into Microsoft Excel 5.0. […]

Htrp3 [9] = molecular target: T1, Htrp3; assay: Thapsigargin (store depletion)-stimulated Ca2+ entry in Htrp3-transfected COS cells; assay type: cell-based; set-up: The full length cDNAs encoding the M5 muscarinic receptor (32), Htrp1 (29), Htrp3 and murine luteinizing hormone receptor; expressed in transfected cells; host or cells: COS-M6; details: 250 μM La3+; 500 nM TG, 1.8 mM Ca2+ added
Procedure: as §3

Compound: COc1ccc(CCCOC(Cn2ccnc2)c2ccc(OC)cc2)cc1 (centres unmarked) [SKF 96365]
- Sensitivity of CCE endogenous to the HEK 293 cell (control) [1]: much less sensitive
- Block of CCE due to Htrp3 (extra-CCE) (Htrp3 [2]): blocks selectively; also recorded: blocked

Compound: maitotoxin
- Maitotoxin-stimulated Ca2+ influx, Htrp3-expressing cells versus control cells (Htrp3 [3]): several fold larger

Compound: [Ni+2] [Ni^2+, nickel]
- Inhibition of CCh-stimulated influx due to Htrp3 (Htrp3 [4]; 2 mM Ni2+, Htrp3-transfected COS cells): 20%
- Block of Ca2+ influx in Htrp3 cells (Htrp3 [4]; 10 mM Ni2+, Htrp3-transfected COS cells): 85%
- Block of endogenous CCh-stimulated CCE ([5]; 2 mM Ni2+, COS cells): > 90%

Compound: C[N+](C)(C)CCOC(N)=O [CCh, carbachol]
- Increase of [Ca2+]i through the capacitative influx path (at Ca2+ addition vs 30 sec later) (M5 muscarinic receptor [6]): 96 ± 5 nM

Compound: CN1[C@@H]2CC[C@H]1C[C@@H](OC(=O)C(CO)c1ccccc1)C2 (some centres unmarked) [atropine]
- Effect on carbachol-maintained [Ca2+]i plateau (M5 muscarinic receptor [7]): blocked

Compound: [La+3] [La^3+, lanthanum]
- Block of the difference due to Htrp3 influx (Htrp3 [4]; 250 μM La3+, Htrp3-transfected COS cells): 30-40%
- Inhibition of Htrp3-stimulated Ca2+ influx (Htrp3 [4]; 1 mM La3+, COS-M6 cells, CCh-stimulated, Ca2+ readdition): fully inhibited
- Block of TG-stimulated Ca2+ entry [8]: > 80%
- Block of endogenous Ca2+ influx ([5]; 250 μM La3+, COS cells, agonist-stimulated): 80-90%
- Inhibition of CCE endogenous to COS cells ([5]; 1 mM La3+, CCh-stimulated, Ca2+ readdition): fully inhibited
- Effect on TG-stimulated Ca2+ entry into Htrp3 transfected cells (Htrp3 [9]): significant residual
